Laboratory results taken from patent US20240391959A1, “BICYCLIC PEPTIDE LIGANDS […] FOR TRANSFERRIN RECEPTOR 1 (TfR1)” (BicycleTx Limited, priority 2020, published 2024).
pKd, pKi: −log10 of the molar value. Read-outs that look alike come from different tables or passages of the source. Starred links: 1 amine or outer side, 2 acyl side, 3 side chain; linkers in the order of their positions; H or OH if unused. Positions of bridges follow the written chain, without caps; N, C: chain ends. Residues, ends and D or L forms follow the SMILES beside them. TATA = O=C(CC[*:1])N1CN(C(=O)CC[*:2])CN(C(=O)CC[*:3])C1; TATB = O=C(C[*:1])N1CN(C(=O)C[*:2])CN(C(=O)C[*:3])C1

Legend:
human TfR1 [1] = biological target: T1, human TfR1 (Homo sapiens, UniProt P02786); test: TfR1 inhibition assay (Alpha assay, transferrin inhibition); settings: inhibition of fluorescently labelled human transferrin binding; read-out: Geomean IC50 (μM) Human TfR1
Experimental: TfR1 inhibitory activity of peptides of the invention (IC50) was determined using Alpha assay, in accordance with the following method. Proteins, peptides and Alpha reagents were prepared to 5× concentration and 5 μl of each reagent added to 25 μl total volume in white 384-well Optiplate to make 1× final concentration. Fluorescently labelled human transferrin (Invitrogen, T2871) was diluted to 2.5 nM in 25 mM HEPES with 100 mM NaCl, 4 mM CaCl2, 0.5% BSA and 0.05% P20, pH 7.4. Human or cynomolgus TfR1 protein was diluted to 50 nM and unlabelled human transferrin (R&D Systems, 2914-HT) was diluted to 500 nM in the same assay buffer. Non-labelled peptides from DMSO stock were diluted 20-fold in the same assay buffer, followed by 1 in 3 serial dilution in assay buffer containing 5% DMSO to give 11-different concentrations. 5 μl fluorescently labelled transferrin, 5 μl human or cynomolgus TfR1, 5 μl non-labelled peptide or unlabelled human transferrin (R&D Systems, 2914-HT) were added to white 384-well Optiplate and incubated for 30 min. Anti-FITC Acceptor (PerkinElmer, AL127) was diluted 50-fold in assay buffer, 5 μl added to assay plate and incubated for 30 min. […] Luminescence measurements were conducted on a BMG PHERAstar FS or FSX equipped with an AlphaScreen 520-620 module at 25° C. following excitation at 680 nm. […]
Target sequence in this assay (P02786 whole entry): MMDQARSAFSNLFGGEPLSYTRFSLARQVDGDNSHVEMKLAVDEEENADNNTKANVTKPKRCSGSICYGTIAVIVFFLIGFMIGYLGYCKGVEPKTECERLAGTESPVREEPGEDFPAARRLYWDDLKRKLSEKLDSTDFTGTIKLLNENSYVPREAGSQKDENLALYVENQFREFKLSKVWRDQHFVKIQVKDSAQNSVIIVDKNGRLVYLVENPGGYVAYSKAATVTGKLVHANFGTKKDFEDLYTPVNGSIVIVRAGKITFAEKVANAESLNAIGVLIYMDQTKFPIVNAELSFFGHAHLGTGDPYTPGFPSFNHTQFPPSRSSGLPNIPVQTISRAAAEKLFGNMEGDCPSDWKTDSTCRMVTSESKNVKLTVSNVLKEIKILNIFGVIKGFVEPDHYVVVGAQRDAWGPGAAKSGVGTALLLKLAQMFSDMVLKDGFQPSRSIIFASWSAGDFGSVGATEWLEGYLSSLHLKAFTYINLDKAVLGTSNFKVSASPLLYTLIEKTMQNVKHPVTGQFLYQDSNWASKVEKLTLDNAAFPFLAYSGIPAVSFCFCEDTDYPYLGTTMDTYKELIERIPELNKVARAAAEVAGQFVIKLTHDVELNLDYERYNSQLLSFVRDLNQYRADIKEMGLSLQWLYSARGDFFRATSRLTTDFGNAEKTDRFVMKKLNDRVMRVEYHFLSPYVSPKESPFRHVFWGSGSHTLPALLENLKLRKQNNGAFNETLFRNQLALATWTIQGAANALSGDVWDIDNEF

cynomolgus TfR1 [2] = type: binding
cynomolgus TfR1 [3] = type: binding; remark: listed apart in the source
human TfR1 [4] = biological target: T1, human TfR1; test: biochemical; type: binding; design: His6-tagged TfR1 (a.a. 89-760) (ACRO Biosystems, CD1-H5243 and TFR-C524a); His6; purchased R&D Systems or Acro Biosystems 2474-TR or CD1-H5243; settings: for Kd: Human TfR1 Kd (nM); for pKd: read-out: Human TfR1 Kd
Target sequence in this assay (P02786 89-760): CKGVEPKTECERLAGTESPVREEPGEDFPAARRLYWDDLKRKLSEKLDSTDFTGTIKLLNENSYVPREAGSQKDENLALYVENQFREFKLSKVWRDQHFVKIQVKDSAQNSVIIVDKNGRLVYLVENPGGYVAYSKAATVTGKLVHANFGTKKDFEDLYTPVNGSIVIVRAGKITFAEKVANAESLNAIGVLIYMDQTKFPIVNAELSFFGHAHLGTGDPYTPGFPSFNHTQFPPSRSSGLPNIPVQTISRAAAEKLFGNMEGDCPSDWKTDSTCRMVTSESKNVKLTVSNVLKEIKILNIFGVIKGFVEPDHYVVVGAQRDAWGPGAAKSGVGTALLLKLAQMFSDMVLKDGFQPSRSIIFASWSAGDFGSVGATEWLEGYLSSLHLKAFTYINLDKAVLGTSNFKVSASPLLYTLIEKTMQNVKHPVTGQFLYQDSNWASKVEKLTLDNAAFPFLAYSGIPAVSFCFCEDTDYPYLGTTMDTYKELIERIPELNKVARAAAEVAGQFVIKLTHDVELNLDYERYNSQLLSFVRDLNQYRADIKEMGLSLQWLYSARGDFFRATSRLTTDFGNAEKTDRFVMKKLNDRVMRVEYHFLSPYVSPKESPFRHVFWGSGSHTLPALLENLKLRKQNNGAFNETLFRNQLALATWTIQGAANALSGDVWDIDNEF

human TfR1 [5] = biological target: T1, human TfR1; test: biochemical; type: binding; design: His6-tagged TfR1 (a.a. 89-760) (ACRO Biosystems, CD1-H5243 and TFR-C524a); His6; purchased R&D Systems or Acro Biosystems 2474-TR or CD1-H5243
Target sequence in this assay (P02786 89-760): as above

| Compound | IC50 (human TfR1 [1]) [µM] | pKd (cynomolgus TfR1 [2]) | pKi (cynomolgus TfR1 [3]) | Kd (human TfR1 [4]) [nM] | Ki (human TfR1 [5]; Human TfR1 Ki (nM)) [nM] | pKd (human TfR1 [4]) | Ki (human TfR1 [5]; Geomean Ki (μM)) [nM] |
| --- | --- | --- | --- | --- | --- | --- | --- |
| CC[C@H](C)[C@@H]1NC(=O)[C@H](Cc2ccccc2)NC(=O)[C@H](C)NC(=O)[C@H](CC(C)C)NC(=O)CNC(=O)[C@@H]2CSCCC(=O)N3CN(CN(C3)C(=O)CCSC[C@@H](C(=O)N[C@@H](C)C(N)=O)NC(=O)[C@H](CCC(=O)O)NC1=O)C(=O)CCSC[C@H](NC(=O)[C@H](C)N)C(=O)N[C@@H](CCCNC(=N)N)C(=O)N[C@@H](CCC(=O)O)C(=O)N[C@@H](Cc1ccccc1)C(=O)N[C@@H](Cc1ccccc1)C(=O)N[C@@H](CC(=O)O)C(=O)N[C@@H]([C@@H](C)O)C(=O)N2 [BCY12452, A-(SEQ ID NO: 2)-A] (H-ACREFFDTCGLAFIECA-NH2; linker 2-9-16 via TATA; N-terminus and C-terminus assumed) | 1.21 |  |  |  |  |  |  |
| CC[C@H](C)[C@@H]1NC(=O)[C@@H]2CSCC(=O)N3CN(CN(C3)C(=O)CSC[C@@H](C(=O)N[C@@H](C)C(N)=O)NC(=O)[C@H](Cc3ccc(O)cc3)NC(=O)[C@H](CO)NC1=O)C(=O)CSC[C@H](NC(=O)[C@H](C)N)C(=O)N[C@@H](CO)C(=O)N1CCC[C@H]1C(=O)N[C@@H](CC(=O)O)C(=O)N[C@@H](C)C(=O)N[C@@H](Cc1c[nH]cn1)C(=O)N[C@@H](CC(C)C)C(=O)NCC(=O)N2 [BCY15468, A-(SEQ ID NO: 9)-A] |  | 5.40 | 5.91 | 29 | 103 |  |  |
| CC[C@H](C)[C@@H]1NC(=O)[C@@H]2CSCC(=O)N3CN(CN(C3)C(=O)CSC[C@@H](C(=O)N[C@@H](C)C(N)=O)NC(=O)[C@H](Cc3ccc4ccccc4c3)NC(=O)[C@H](CO)NC1=O)C(=O)CSC[C@H](NC(=O)[C@H](C)N)C(=O)N[C@@H](CO)C(=O)N1CCC[C@H]1C(=O)N[C@@H](CC(=O)O)C(=O)N[C@@H](C)C(=O)N[C@@H](Cc1c[nH]cn1)C(=O)N[C@@H](CC(C)C)C(=O)NCC(=O)N2 [BCY16031, A-(SEQ ID NO: 36)-A] |  | 5.19 |  |  |  | 7.17 | 119 |
| CC[C@H](C)[C@@H]1NC(=O)[C@@H]2CSCC(=O)N3CN(CN(C3)C(=O)CSC[C@@H](C(=O)N[C@@H](C)C(N)=O)NC(=O)[C@H](Cc3ccncc3)NC(=O)[C@H](CO)NC1=O)C(=O)CSC[C@H](NC(=O)[C@H](C)N)C(=O)N[C@@H](CO)C(=O)N1CCC[C@H]1C(=O)N[C@@H](CC(=O)O)C(=O)N[C@@H](C)C(=O)N[C@@H](Cc1c[nH]cn1)C(=O)N[C@@H](CC(C)C)C(=O)NCC(=O)N2 [BCY16032, A-(SEQ ID NO: 48)-A] |  | 4.52 |  | 305 |  |  | 654 |
| CC[C@H](C)[C@@H]1NC(=O)[C@@H]2CSCC(=O)N3CN(CN(C3)C(=O)CSC[C@@H](C(=O)N[C@@H](C)C(N)=O)NC(=O)[C@H](Cc3ccc(O)cc3)NC(=O)[C@H](CO)NC1=O)C(=O)CSC[C@H](NC(=O)[C@H](C)N)C(=O)N[C@@H](CO)C(=O)N1C[C@H](O)C[C@H]1C(=O)N[C@@H](CC(=O)O)C(=O)N[C@@H](C)C(=O)N[C@@H](Cc1c[nH]cn1)C(=O)N[C@@H](CC(C)C)C(=O)NCC(=O)N2 [BCY16047, A-(SEQ ID NO: 15)-A] |  | 5.32 |  |  | 42 | 7.31 | 133 |
| CC[C@H](C)[C@@H]1NC(=O)[C@@H]2CSCC(=O)N3CN(CN(C3)C(=O)CSC[C@H](NC(=O)[C@H](CCSC)NC(=O)[C@H](Cc3c[nH]c4ccccc34)NC(=O)[C@@H](N)Cc3c[nH]cn3)C(=O)N[C@@H](CO)C(=O)N3CCC[C@H]3C(=O)N[C@@H](CC(=O)O)C(=O)N[C@@H](C)C(=O)N[C@@H](Cc3c[nH]cn3)C(=O)N[C@@H](CC(C)C)C(=O)NCC(=O)N2)C(=O)CSC[C@@H](C(=O)N[C@@H](C)C(N)=O)NC(=O)[C@H](Cc2ccc(O)cc2)NC(=O)[C@H](CO)NC1=O [BCY17110, HWM-(SEQ ID NO: 9)-A] (H-HWMCSPDAHLGCISYCA-NH2; linker 4-12-16 via TATB) |  | 6.63 |  | 15 |  |  | 22 |
| CC[C@H](C)[C@@H]1NC(=O)[C@@H]2CSCC(=O)N3CN(CN(C3)C(=O)CSC[C@H](NC(=O)[C@H](CO)NC(=O)[C@@H](NC(=O)[C@@H](N)Cc3c[nH]cn3)[C@@H](C)O)C(=O)N[C@@H](CO)C(=O)N3CCC[C@H]3C(=O)N[C@@H](CC(=O)O)C(=O)N[C@@H](C)C(=O)N[C@@H](Cc3c[nH]cn3)C(=O)N[C@@H](CC(C)C)C(=O)NCC(=O)N2)C(=O)CSC[C@@H](C(=O)N[C@@H](C)C(N)=O)NC(=O)[C@H](Cc2ccc(O)cc2)NC(=O)[C@H](CO)NC1=O [BCY17111, HTS-(SEQ ID NO: 9)-A] (H-HTSCSPDAHLGCISYCA-NH2; linker 4-12-16 via TATB) |  | 6.04 |  | 8.3 |  |  | 86 |
| CC[C@H](C)[C@@H]1NC(=O)[C@@H]2CSCC(=O)N3CN(CN(C3)C(=O)CSC[C@H](NC(=O)[C@H](Cc3ccccc3)NC(=O)[C@H](CO)NC(=O)[C@@H](N)CCC(=O)O)C(=O)N[C@@H](CO)C(=O)N3CCC[C@H]3C(=O)N[C@@H](CC(=O)O)C(=O)N[C@@H](C)C(=O)N[C@@H](Cc3c[nH]cn3)C(=O)N[C@@H](CC(C)C)C(=O)NCC(=O)N2)C(=O)CSC[C@@H](C(=O)N[C@@H](C)C(N)=O)NC(=O)[C@H](Cc2ccc(O)cc2)NC(=O)[C@H](CO)NC1=O [BCY17113, ESF-(SEQ ID NO: 9)-A] (H-ESFCSPDAHLGCISYCA-NH2; linker 4-12-16 via TATB) |  | 5.78 |  | 308 |  |  | 103 |
| CC[C@H](C)[C@@H]1NC(=O)[C@@H]2CSCC(=O)N3CN(CN(C3)C(=O)CSC[C@@H](C(=O)N3CCC[C@H]3C(=O)N[C@@H](Cc3c[nH]cn3)C(=O)N3CCC[C@H]3C(N)=O)NC(=O)[C@H](Cc3ccc(O)cc3)NC(=O)[C@H](CO)NC1=O)C(=O)CSC[C@H](NC(=O)[C@H](C)N)C(=O)N[C@@H](CO)C(=O)N1CCC[C@H]1C(=O)N[C@@H](CC(=O)O)C(=O)N[C@@H](C)C(=O)N[C@@H](Cc1c[nH]cn1)C(=O)N[C@@H](CC(C)C)C(=O)NCC(=O)N2 [BCY17115, A-(SEQ ID NO: 9)-PHP] (H-ACSPDAHLGCISYCPHP-NH2; linker 2-10-14 via TATB; N-terminus and C-terminus assumed) |  | 5.91 |  | 60 | 30 |  | 30 |
| CC[C@H](C)[C@@H]1NC(=O)[C@@H]2CSCC(=O)N3CN(CN(C3)C(=O)CSC[C@@H](C(=O)N[C@@H](CCC(=O)O)C(=O)N[C@@H](Cc3c[nH]cn3)C(=O)N[C@@H](CCC(N)=O)C(=O)N[C@@H](CCC(=O)O)C(N)=O)NC(=O)[C@H](Cc3ccc(O)cc3)NC(=O)[C@H](CO)NC1=O)C(=O)CSC[C@H](NC(=O)[C@H](C)N)C(=O)N[C@@H](CO)C(=O)N1CCC[C@H]1C(=O)N[C@@H](CC(=O)O)C(=O)N[C@@H](C)C(=O)N[C@@H](Cc1c[nH]cn1)C(=O)N[C@@H](CC(C)C)C(=O)NCC(=O)N2 [BCY17119, A-(SEQ ID NO: 9)-EHQE] (H-ACSPDAHLGCISYCEHQE-NH2; linker 2-10-14 via TATB) |  | 5.25 |  | 212 |  |  | 160 |
| CC[C@H](C)[C@@H]1NC(=O)[C@@H]2CSCC(=O)N3CN(CN(C3)C(=O)CSC[C@H](NC(C)=O)C(=O)N[C@@H](CO)C(=O)N[C@@H](C)C(=O)N[C@@H](CC(=O)O)C(=O)N[C@@H](C)C(=O)N[C@@H](Cc3c[nH]cn3)C(=O)N[C@@H](CC(C)C)C(=O)NCC(=O)N2)C(=O)CSC[C@@H](C(N)=O)NC(=O)[C@H](Cc2ccc(O)cc2)NC(=O)[C@H](CO)NC1=O [BCY17987, Ac-(SEQ ID NO: 19)] (Ac-CSADAHLGCISYC-NH2; linker 1-9-13 via TATB) |  | 5.29 |  | 50 | 383 |  | 42 |
| CC[C@H](C)[C@@H]1NC(=O)[C@@H]2CSCC(=O)N3CN(CN(C3)C(=O)CSC[C@@H](C(=O)N[C@@H](CCC(=O)O)C(=O)N3CCCC[C@H]3C(=O)N[C@@H](Cc3c[nH]c4ccccc34)C(N)=O)NC(=O)[C@H](Cc3ccc(O)cc3)NC(=O)[C@H](CO)NC1=O)C(=O)CSC[C@H](NC(C)=O)C(=O)N[C@@H](CO)C(=O)N1CCC[C@H]1C(=O)N[C@@H](CC(=O)O)C(=O)N[C@@H](C)C(=O)N[C@@H](Cc1c[nH]cn1)C(=O)N[C@@H](CC(C)C)C(=O)NCC(=O)N2 [BCY18039, Ac-(SEQ ID NO: 9)-E[Pip]W] |  | 6.09 |  | 8.6 | 8 |  | 8 |
